Test: Human HepG2 cell viability assay in 384 well format
Type: toxicity, cell-based
Design: dose 125 nL, time 70.5 hour; cytotoxicity at 70.5 h: concentration not given beside the values
Conditions: HepG2 cells, read-out: Inhibition

Row | SMILES | cytotoxicity at 70.5 h
1 | Cc1ccc(-c2nc(CN3CCOC(Cn4cccn4)C3)cs2)o1 (configuration not stated) | -13.3%
2 | CC(C)c1nc(C2CCCN2CC(=O)N2CCNC2=O)no1 (configuration not stated) | -3.44%
3 | O=C1NCCCCC1NCc1csc(-c2ccsc2)n1 (configuration not stated) | 7.38%
4 | CN(C)c1nc(NCc2ccccc2Cn2cccn2)ncc1F | 5.75%
5 | Cc1ccccc1CC(=O)NCc1cnc(CC2CCN(C)CC2)cn1 | -4.57%
6 | Cc1noc(C)c1-c1cccc(CC2CCN(C(=O)c3cscn3)C2)n1 (configuration not stated) | -5.81%
7 | COc1cc(/C=C/c2ncc(C(=O)O)s2)cc(OC)c1 | 14.7%
8 | Cc1nc(CN2CCO[C@@H]3CNCC[C@@H]3C2)cs1 | -5.71%
9 | COc1ccc(Br)c(C(=O)NCCNc2ccc(C(F)(F)F)cn2)c1 | -13.7%
10 | Cc1noc([C@H]2C[C@H]3OCC[C@H]3N(Cc3ccc4c(c3)OCO4)C2)n1 | -11.8%
11 | CC(NC(=O)NC1CC1)c1nc(-c2ccccc2)cs1 (configuration not stated) | -8.69%
12 | CN(C)c1nc2n(c(=O)n1)CCN2C(=O)Nc1ccccc1 | -5.25%
13 | Cc1cccc(NC(=O)C2CSc3ncc(C)c(=O)n3C2)n1 (configuration not stated) | -9.15%
14 | COc1cc2c(cc1CN1CCn3c(CO)nnc3C1)CCC2 | 8.8%
15 | Cc1cc(C)n(CC2CCCN2C(=O)c2cccnc2N(C)C)n1 (configuration not stated) | -8.62%
16 | Cc1csc(N2CCCN(c3cc(C)nc(C)c3C#N)CC2)n1 | -4%
17 | Cc1ccc(NC2(C(=O)NCCCN)CCCC2)cc1 | -8.06%
18 | COc1ccc(CN2CC(O)CN(C(=O)C3CCC3)CC2=O)cc1 (configuration not stated) | -0.603%
19 | Cc1ccc(NC(=O)Cn2cc(I)cn2)cc1C | 20.3%

Row | SMILES | cytotoxicity at 70.5 h
20 | CC(=O)Nc1ccc(CN2CCc3[nH]cnc3C2c2ccc(C)o2)cc1 (configuration not stated) | -6.39%
21 | O=C1N(CC2CC2)CCC12CCCN(c1ncc(F)cn1)C2 (configuration not stated) | -3.11%
22 | Cc1noc(-c2ccnc(Oc3cccc(CN4CCCC4)c3F)c2)n1 | -14.1%
23 | O=C(CSc1ccccn1)N1CCC(OCc2cccnc2)CC1 | -18.6%
24 | Cc1cc(N2CCC(O)(C(=O)O)CC2)nc2ccccc12 | -11%
25 | O=C(O)c1c(NC2CCC2)ncc2c1CCN(C1CCOC1)C2 (configuration not stated) | -6.13%
26 | CN(C)S(=O)(=O)N1CCN(c2ccnc(N3CCCC3)n2)CC1 | -12.4%
27 | CCS(=O)(=O)N1CCC2(CC1)CN(c1cccnc1)C(=O)CO2 | -5.49%
28 | Cc1cnc(N2CCC3(CCCN3C(=O)c3ccco3)CC2)nc1 | -2.74%
29 | CSc1ccc(C(=O)N2CC(=O)N(Cc3ccccc3)CC(O)C2)cc1 (configuration not stated) | 0.216%
30 | CN(C)C(=O)COC1COC2(CCN(CC3CC3)CC2)C1 (configuration not stated) | -5.8%
31 | Cc1ccc(CNC2(Cc3cc(-c4ccccn4)on3)COC2)o1 | -1.75%
32 | Nc1ncc(CN2CCC(CCC(=O)NC3CC3)CC2)cn1 | 0.29%
33 | c1cncc(-c2noc(C3CN(Cc4cccs4)C3)n2)c1 | -12.2%
34 | CC1(C)OC(=O)N(CCOc2ccc(F)cc2)C1=O | -4.69%
35 | Cc1cc(CN2C[C@@H]3COC[C@]3(CNC(=O)N(C)C)C2)no1 | -1.07%
36 | O=C(CCN1CCCO1)N1CC[C@@H](CNC(=O)N2CCCC2)[C@H](O)C1 | 14%
37 | CCOc1ccccc1N1CCN(C(=O)c2cc[nH]n2)CC1 | 0.935%
38 | O=C1CC(c2ccc(C(F)(F)F)cc2)c2snc(C(=O)O)c2N1 (configuration not stated) | -15.6%

Row | SMILES | cytotoxicity at 70.5 h
39 | CCN1CCCC(C)(C(=O)NCc2nnnn2-c2ccccc2)C1 (configuration not stated) | -5.49%
40 | Cc1ccc(C(=O)NCCNC(=O)c2cncnc2C(C)C)cc1F | -7.29%
41 | CC(C)C[C@@H](CO)n1cc(-c2cncnc2)nn1 | 1.71%
42 | CCOCCCn1c(NC(=O)c2cc(C)on2)nc2ccccc21 | 9.94%
43 | COCCNC(=O)CN1CCN(c2nc3cc(C)ccc3o2)CC1 | -1.86%
44 | NC(=O)NCCC(=O)N1CCC(c2cc(-c3ccccc3Cl)n[nH]2)CC1 | -1.52%
45 | COc1ccc(CCN2CCCC2Cn2nc(C)nc2C)cc1 (configuration not stated) | 17.7%
46 | CN(C)c1ncccc1CNS(=O)(=O)c1ccccc1F | -27.7%
47 | CCN1CCC(CC(=O)NCCc2nc(C)cc(C)n2)CC1 | -3.38%
48 | Cc1cccc(C2CCCN(C(=O)CN3CCC(C(N)=O)CC3)C2)c1 (configuration not stated) | -4.32%
49 | COC(C)(C)CNC(=O)c1cn(-c2cccc(Cl)c2F)nn1 | 4.1%
50 | C1CCC(c2nnc3sc(C4CCOC4)nn23)C1 (configuration not stated) | -13.4%
51 | Cc1nnc2n1CCN(C(=O)C(OC1CCCC1)c1ccccc1)C2 (configuration not stated) | -1.74%
52 | Cc1ncc(CN2CCc3c(nc4cc(C5CC5)nn4c3O)C2)n1C | -2.73%
53 | CCN(CC(=O)NC(C)C)C(=O)C(C)(C)c1ccc2c(c1)OCCO2 | -8.1%
54 | CN(C)C(=O)CN1CCCC(c2cncc(-c3cccc(Cl)c3)n2)C1 (configuration not stated) | -1.23%
55 | CC1=N[C@@]2(CC[C@@H]3CN(S(=O)(=O)CC(C)C)C[C@@H]32)C(=O)N1CC1CC1 | 8.18%
56 | NC(=O)c1cc2c(nc1Oc1ccccc1CN1CCCCC1)CCC2 | -15%
57 | CCOc1ccccc1C(C(=O)O)N(C)CC1CCOCC1 (configuration not stated) | 21.4%

Reference: ChEMBL document CHEMBL3507680, “University of Dundee, Gates Library screen for HepG2 cell viability”
